{"source": "patent US11472843B2", "about": "“Malacidins and methods of use” (The Rockefeller University, priority 2017, dated 2022)", "key": {"S. aureus NRS100": {"system": "S. aureus NRS100", "test": "MIC assay, S. aureus NRS100", "type": "cell-based, Staphylococcus aureus", "details": "β-lactams", "experimental": "(§1) MIC assays were performed in duplicate in 96-well microtiter plates on the basis of the protocol recommended by the Clinical and Laboratory Standards Institute (Cockerill, 2012, Clinical and Laboratory Standards Institute). All presented data are the average of at least three independent assays. Stock solutions of malacidin or daptomycin (2 mg ml^−1 in H2O) were added to the first well in a row and serially diluted (twofold per transfer) across the microtiter plate. CaCl2 was supplemented to media at a final concentration of 15 mM and fetal bovine serum (ATCC) was added to media (1:10) to test the effect of serum. Overnight cultures of bacteria were diluted 5,000-fold, and 50 μl was used as an inoculum in each well. MIC values were determined by visual inspection after 18 h incubation (30° C., static growth). For the enhanced calcium titration experiments, standard MIC assays were performed with methicillin-resistant Staphylococcus aureus (MRSA) PFGE strain type USA300 in media supplemented with CaCl2 at: 25.0, 18.8, 14.1, 7.03, 3.52, 2.50, 1.76, 0.880, 0.440, 0.250 and 0 mM. To assess the effects of monovalent and divalent cations on malacidin activity, standard MIC assays were performed with MRSA USA300 in media supplemented with 15 mM CaCl2, MgCl2, MnCl2, ZnCl2, SrCl2, NaCl and KCl. To evaluate the effects of pulmonary surfactants on activity against a community-acquired pneumonia-causing pathogen, standard MIC assays were performed with Streptococcus pneumoniae TCH8431 in media supplemented with both 15 mM CaCl1 and Survanta (beractant) at a final concentration of 5, 1, 0.5, 0.25 or 0% (volume/volume (v/v) percent)."}, "S. aureus NRS108": {"system": "S. aureus NRS108", "test": "MIC assay, S. aureus NRS108", "type": "cell-based, Staphylococcus aureus", "details": "β-lactams", "experimental": "as §1"}, "E. faecium Com15": {"system": "E. faecium Com15", "test": "MIC assay, E. faecium Com15", "type": "cell-based, Enterococcus faecium", "experimental": "as §1"}, "[1]": {"system": "Streptococcus mutans UA159", "test": "MIC assay, S. mutans", "type": "cell-based", "experimental": "as §1, with “To evaluate the effects of pulmonary surfactants on activity against a community-acquired pneumonia-causing pathogen, standard MIC assays were performed with Streptococcus pneumoniae TCH8431 in media supplemented with both 15 mM CaCl1 and Survanta (beractant) at a final concentration of 5, 1, 0.5, 0.25 or 0% (volume/volume (v/v) percent).” left out"}, "[2]": {"system": "Lactobacillus rhamnosus NCTC 13031", "test": "MIC assay, L. rhamnosus", "type": "cell-based", "experimental": "as §1, with “To evaluate the effects of pulmonary surfactants on activity against a community-acquired pneumonia-causing pathogen, standard MIC assays were performed with Streptococcus pneumoniae TCH8431 in media supplemented with both 15 mM CaCl1 and Survanta (beractant) at a final concentration of 5, 1, 0.5, 0.25 or 0% (volume/volume (v/v) percent).” left out"}, "[3]": {"system": "Cryptococcus neoformans ATCC 32045", "test": "MIC assay, C. neoformans", "type": "cell-based", "experimental": "as §1"}, "[4]": {"system": "Klebsiella pneumonia ATCC 10031", "test": "MIC assay, Klebsiella pneumonia", "type": "cell-based", "experimental": "as §1"}, "[5]": {"system": "Pseudomonas aeruginosa PAO1", "test": "MIC assay, P. aeruginosa", "type": "cell-based", "experimental": "as §1"}, "HEK293 cells": {"system": "HEK293 cells", "type": "cell-based, human", "details": "viability, in the presence of calcium, 4.5 h", "experimental": "(§2) Cytotoxicity against human cell lines was tested using an ATP release assay, CelITiter-Glo (Promega), according to the manufacturer's instructions. HEK293 cells (293FT, Thermo Fisher Scientific, no. R700-07) and MRC5 cells (ATCC CCL-171) were grown in complete DMEM media supplemented with 10% FBS, and were inspected visually for authentication and tested for mycoplasma contamination using a MycoAlert detection kit (Lonza). Cells were grown to confluence, trypsinized, counted and plated in 384-well cell culture plates at an appropriate density (2,500 cells per well for HEK293 and 1000 cells per well for MRC5). The test compound was added 24 h later in the presence of calcium, and viability was determined after 4.5 h of incubation. Experiments were performed with biological replicates. Haemolytic activity was evaluated by a red blood cell disc diffusion assay. Twenty-microlitre stocks of malacidin A and Triton X-100 were infused on filter discs, dried completely and then overlaid on 5% sheep blood agar plates (Hardy Diagnostics). The plates were incubated for 24 h at 20° C., and then checked for lysis."}, "MRC5 cells": {"system": "MRC5 cells", "type": "cell-based, human", "experimental": "as §2"}, "[6]": {"system": "Methicillin-resistant Staphylococcus aureus strain MW2", "test": "Rat cutaneous wound infection model", "type": "in vivo, Sprague Dawley rats", "details": "topical, 0.5 mg daily in 25 mM CaCl2", "experimental": "Methicillin-resistant Staphylococcus aureus strain MW2 was grown in Mueller Hinton broth at 37° C. with shaking overnight. The culture was centrifuged, supernatant aspirated and the bacteria were gently washed once in sterile saline. The optical density was determined at 600 nm. The bacterial suspension was diluted to provide a challenge inoculum of approximately 500 CFU per wound in a volume of 0.05 ml in sterile 0.9% NaCl. The inoculum count was verified by viable counts on Mannitol Salt Agar plates spread with proper dilutions of the inoculum and incubated at 37° C. for 24-48 h. For the wound infection model, 8-week-old male (˜200 g) Sprague Dawley rats were given two wounds each. Two rats were used at each time point (day 1 and day 3) for each treatment group for a total of 4 rats (8 wounds) per drug. This sample size was statistically calculated on the basis of previous in-house wound burden studies comparing vehicle-treated groups with antibiotic controls. Rats were randomly selected into the treatment groups. […] At 1 day and 3 days post infection, the rats were humanely euthanized and wounds were excised and assessed for bacterial burdens by plating on MSA. […] Abnormal clinical signs were recorded if observed."}}, "data": [{"substance": "malacidin A", "values": [{"measurement": "MIC", "setting": "S. aureus NRS100; S. aureus NRS100, tetracycline, 15 mM CaCl2", "result": "0.2-0.8 μg m1^−1"}, {"measurement": "MIC", "setting": "S. aureus NRS100; Staphylococcus aureus NRS100, Tetracycline", "result": "0.2 to 0.8", "unit": "µg/mL"}, {"measurement": "MIC", "setting": "S. aureus NRS108; S. aureus NRS 108, gentamicin, kanamycin, 15 mM CaCl2", "result": "0.2-0.8 μg m1^−1"}, {"measurement": "MIC", "setting": "S. aureus NRS108; Staphylococcus aureus NRS108, Gentamicin, Kanamycin", "result": "0.2 to 0.8", "unit": "µg/mL"}, {"measurement": "MIC", "setting": "E. faecium Com15; E. faecium Com15, 15 mM CaCl2", "result": "0.8-2.0 μg m1^−1"}, {"measurement": "MIC", "setting": "E. faecium Com15; Enterococcus faecium Com15", "result": "0.8 to 2.0", "unit": "µg/mL"}, {"measurement": "MIC", "setting": "[1]; S. mutans, 15 mM CaCl2", "result": "0.1-0.2 μg m1^−1"}, {"measurement": "MIC", "setting": "[1]; Streptococcus mutans UA159", "result": "0.1 to 0.2", "unit": "µg/mL"}, {"measurement": "MIC", "setting": "[2]; L. rhamnosus, 15 mM CaCl2", "result": "0.1-0.2 μg m1^−1"}, {"measurement": "MIC", "setting": "[2]; Lactobacillus rhamnosus NCTC 13031", "result": "0.1 to 0.2", "unit": "µg/mL"}, {"measurement": "MIC", "setting": "[3]; C. neoformans, 15 mM CaCl2", "result": ">100", "unit": "μg m1^−1"}, {"measurement": "MIC", "setting": "[3]; Cryptococcus neoformans ATCC 32045", "result": ">100", "unit": "µg/mL"}, {"measurement": "MIC", "setting": "[4]", "result": ">100", "unit": "µg/mL"}, {"measurement": "MIC", "setting": "[5]", "result": ">100", "unit": "µg/mL"}, {"measurement": "IC50", "setting": "HEK293 cells", "result": ">100", "unit": "μg m1^−1"}, {"measurement": "MIC (a = Viability assessed by ATP release assay)", "setting": "MRC5 cells", "result": ">100", "unit": "a μg mL^−1"}, {"measurement": "IC50", "setting": "MRC5 cells; MRC5, viability, in the presence of calcium, 4.5 h", "result": ">100", "unit": "μg m1^−1"}, {"measurement": "Bacterial burden in the wounds", "setting": "[6]; 24 hours post infection", "result": "no observed bacterial burdens"}, {"measurement": "Bacterial burden in the wounds", "setting": "[6]; 72 hours post infection", "result": "no observed bacterial burdens"}]}]}
